The record followed here is publication PMC9495854, “Novel Phenothiazine/Donepezil-like Hybrids Endowed with Antioxidant Activity for a Multi-Target Approach to the Therapy of Alzheimer’s Disease” (Antioxidants, 2022).

In experiment [1] the target is T1, FAAH Human recombinant (Homo sapiens, UniProt O00519).
T1 construct: purchased Cayman Chemical
T1 sequence (O00519 1-579): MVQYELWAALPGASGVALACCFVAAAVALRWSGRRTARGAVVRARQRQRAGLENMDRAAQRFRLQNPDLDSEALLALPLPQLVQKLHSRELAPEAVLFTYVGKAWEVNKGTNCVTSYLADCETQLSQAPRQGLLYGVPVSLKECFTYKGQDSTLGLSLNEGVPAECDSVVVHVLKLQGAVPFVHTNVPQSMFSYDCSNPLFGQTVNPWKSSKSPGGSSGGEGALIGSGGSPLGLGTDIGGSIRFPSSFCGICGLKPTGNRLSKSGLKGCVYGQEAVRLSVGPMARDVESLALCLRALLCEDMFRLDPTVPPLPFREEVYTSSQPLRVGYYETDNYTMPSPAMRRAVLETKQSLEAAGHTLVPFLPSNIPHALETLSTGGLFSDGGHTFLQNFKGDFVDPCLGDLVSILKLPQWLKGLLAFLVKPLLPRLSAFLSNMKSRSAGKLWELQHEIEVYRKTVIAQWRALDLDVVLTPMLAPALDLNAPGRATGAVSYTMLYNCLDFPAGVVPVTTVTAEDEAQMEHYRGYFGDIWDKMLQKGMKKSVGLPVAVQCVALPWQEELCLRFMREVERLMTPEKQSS
As to the kind of experiment: FAAH inhibition, fluorometric assay. The settings on record: mean ± SEM; read-out: hFAAH (IC50). It counts as biochemical. The method, then: The fatty acid amide hydrolase inhibition was measured for the final compounds using 96-well black flat-bottom microtiter NBS plates (COSTAR flat black). The total volume was 150 µL: the single hybrid was pre-incubated at different concentrations with the enzyme (FAAH Human recombinant, Cayman Chemical, Ann Arbor, MI, USA) in the specific fluorometric assay buffer (tris-HCl 125 mM, Na2EDTA · 2H2O 1 mM, pH = 9.0) for ten minutes at RT, using an orbital shaker. A 50 μL solution of the substrate (7-amino-4-methyl-2H-1-benzopyran-2-one-5Z,8Z,11Z,14Z-eicosatetraen-amide, at a final concentration of 5 µM) was then added. The plates were then incubated for 1 h at 37 °C in a Tecan Infinite M1000 Pro (Tecan, Cernusco S.N., Italy), reading fluorescence values from each well every 30s (λex = 340 nm, λem = 450 nm). The inhibitor activity was expressed as relative fluorescence units (RFU), using the values obtained from control wells lacking the inhibitor and blank wells lacking both inhibitor and enzyme to calculate percent inhibition values for each well. IC50 values are expressed as mean ± SEM of at least two independent measurements performed in triplicate.

A short description of experiment [2]: DPPH radical scavenging assay. The settings on record: DPPH 100 µM in methanol, 30 min. The method, then:
A previously reported method (Blois) with some modifications (Mishra, Ojha, & Chaudhury, 2012) was used to carry out the DPPH assay in 96-well microtiter plates. Each tested compound was dissolved in methanol, after which a freshly prepared solution of DPPH in methanol (100 µM final concentration) was added. Following vigorous stirring, each mixture was left in the dark for 30 min at room temperature, after which absorbance values for each well were read at 520 nm using a spectrophotometric plate reader (VICTOR^3 V multilabel plate reader, PerkinElmer). Antioxidant activity was determined as RSA% (radical scavenging activity). The value was calculated using following equation: RSA% = 100 × [(Ao − Ai)/Ao], where Ao and Ai represent DPPH absorbance in absence or in presence of antioxidant, respectively. Antiradical curves for calculating the EC50 values were obtained by testing each compound at several concentrations. Values of all parameters are expressed as mean ± SEM of at least three independent measurements in triplicate.
On the technique in general: The DPPH test is a chemical assay of radical scavenging.

In experiment [3] the test system is SH-SY5Y cells. Briefly: DCFH-DA cell-based antioxidant assay (H2O2-induced oxidation), SH-SY5Y. The following applies: Homo sapiens, SHSY-5Y, 1 h compound, 100 μM H2O2, read-out: DCFDH-DA IC50 ± SEM SHSY-5Y. The method, then: HepG2 cells were cultured in Eagle’s Minimum Essential Medium (MEM, Euroclone S.p.A., Pero, MI, Italy), supplemented with 10% Fetal Bovine Serum (FBS, Euroclone S.p.A., Pero, MI, Italy), 1% L-glutamine (Euroclone S.p.A., Pero, MI, Italy), 100 U/mL penicillin/streptomycin (Euroclone S.p.A., Pero, MI, Italy), 1% Non-Essential Amino Acids (NEAA, Euroclone S.p.A., Pero, MI, Italy). SH-SY5Y cells were grown in a 1:1 mixture of Dulbecco’s modified Eagle’s medium (DMEM)—high glucose (Euroclone S.p.A., Pero, MI, Italy) and Ham’s F12 Medium (Euroclone S.p.A., Pero, MI, Italy) supplemented with 10% FBS, 1% L-glutamine and 100 U/mL penicillin/streptomycin. For cell assays, cells were trypsinized using Trypsin-EDTA 1X in PBS (Euroclone S.p.A., Pero, MI, Italy).
According to a slightly modified procedure already reported in the literature, the generation of ROS was determined using an oxidation-sensitive fluorescent probe, 2′,7′-dichlorodihydrofluorescein diacetate (DCFH-DA, D6665; Sigma-Aldrich, St. Louis, MO, USA). Briefly, viable cells were seeded in a black 96-well cell culture plate (Costar, Sigma-Aldrich, St. Louis, MO, USA) and after 24 h were incubated with different concentrations (0.1–100 µM) of each compound for 1 h at 37 °C in 5% CO2. […] After washing using PBS, 100 μM H2O2 in medium without serum was added to each well and the cells were incubated for an additional 30 min. The formation of fluorescent dichlorofluorescein (DCF) due to oxidation of DCFH in the presence of ROS, was read at 530 nm using a microplate reader Tecan Infinite M1000 Pro (Tecan, Cernusco S.N., Italy) and DMSO medium was used for control cells. The results are expressed as mean ± SEM of at least three independent measurements in triplicate.

The term IC50 denotes the point on the concentration scale where inhibition reaches its midpoint. In the case of `O=C(NCC1CCN(Cc2ccccc2)CC1)c1ccc2c(c1)Nc1ccccc1S2` [Compound 11a, N-((1-Benzylpiperidin-4-yl)methyl)-10H-phenothiazine-2-carboxamide], the IC50 in experiment [1] was 22.6 ± 1.6 µM; in experiment [3], 14.1 ± 0.6 µM. Besides, the “EC50 (μmol/μmol of DPPH ± SEM)” value in experiment [2] is reported as 0.082 ± 0.007 μmol/μmol of DPPH.
`O=C(NCC1CCN(Cc2ccccc2Cl)CC1)c1ccc2c(c1)Nc1ccccc1S2` [Compound 11b, N-((1-(2-Chlorobenzyl)piperidin-4-yl)methyl)-10H-phenothiazine-2-carboxamide]: the IC50 in experiment [1] was found to be 3.8 ± 0.9 µM; in experiment [3], 1.32 ± 0.2 µM. In experiment [2], the “EC50 (μmol/μmol of DPPH ± SEM)” value was 0.139 ± 0.014 μmol/μmol of DPPH.
On the same counts, the results for `Cc1ccccc1CN1CCC(CNC(=O)c2ccc3c(c2)Nc2ccccc2S3)CC1` [Compound 11c, N-((1-(2-Methylbenzyl)piperidin-4-yl)methyl)-10H-phenothiazine-2-carboxamide] are 3.08 ± 0.44 µM, 2.11 ± 0.4 µM and 0.117 ± 0.013 μmol/μmol of DPPH.
As for `O=C(NCC1CCN(Cc2ccccc2F)CC1)c1ccc2c(c1)Nc1ccccc1S2` [Compound 11d, N-((1-(2-Fluorobenzyl)piperidin-4-yl)methyl)-10H-phenothiazine-2-carboxamide], the IC50 is 5.06 ± 0.4 µM in experiment [1] and 1.43 ± 0.5 µM in experiment [3]. In addition, the “EC50 (μmol/μmol of DPPH ± SEM)” value in experiment [2] is on record as 0.126 ± 0.014 μmol/μmol of DPPH.
On the same counts, the results for `COc1cccc(CN2CCC(CNC(=O)c3ccc4c(c3)Nc3ccccc3S4)CC2)c1` [Compound 11e, N-((1-(3-Methoxybenzyl)piperidin-4-yl)methyl)-10H-phenothiazine-2-carboxamide] are 13 ± 3.4 µM, 1.12 ± 0.9 µM and 0.104 ± 0.011 μmol/μmol of DPPH.
On the same counts, the results for `O=C(NCCN1CCN(Cc2ccccc2)CC1)c1ccc2c(c1)Nc1ccccc1S2` [Compound 12a, N-(2-(4-Benzylpiperazin-1-yl)ethyl)-10H-phenothiazine-2-carboxamide] are 41.4 ± 0.9 µM, 2.01 ± 0.61 µM and 0.182 ± 0.016 μmol/μmol of DPPH.
For `O=C(NCCN1CCN(Cc2ccccc2Cl)CC1)c1ccc2c(c1)Nc1ccccc1S2` [Compound 12b, N-(2-(4-(2-Chlorobenzyl)piperazin-1-yl)ethyl)-10H-phenothiazine-2-carboxamide], the values for the IC50 in experiment [1] and in experiment [3] were 6.31 ± 1.28 µM and 9.1 ± 1.42 µM, respectively. For the same compound, the “EC50 (μmol/μmol of DPPH ± SEM)” value in experiment [2] is 0.122 ± 0.011 μmol/μmol of DPPH.
The like results for `Cc1ccccc1CN1CCN(CCNC(=O)c2ccc3c(c2)Nc2ccccc2S3)CC1` [Compound 12c, N-(2-(4-(2-Methylbenzyl)piperazin-1-yl)ethyl)-10H-phenothiazine-2-carboxamide] were, in that order, 7.33 ± 0.86 µM, 11.3 ± 0.21 µM and 0.145 ± 0.010 μmol/μmol of DPPH.
Consider `O=C(NCCN1CCN(Cc2ccccc2F)CC1)c1ccc2c(c1)Nc1ccccc1S2` [Compound 12d, N-(2-(4-(2-Fluorobenzyl)piperazin-1-yl)ethyl)-10H-phenothiazine-2-carboxamide], for which the IC50 in experiment [1] was 9.65 ± 2.45 µM; in experiment [3] it was 11.7 ± 1.11 µM. Moreover, the “EC50 (μmol/μmol of DPPH ± SEM)” value in experiment [2] is 0.231 ± 0.026 μmol/μmol of DPPH.
For the compound `CC(=O)N1c2ccccc2Sc2ccc(C(=O)NCCN3CCN(Cc4ccccc4Cl)CC3)cc21` [Compound 13, 10-Acetyl-N-(2-(4-(2-chlorobenzyl)piperazin-1-yl)ethyl)-10H-phenothiazine-2-carboxamide], the IC50 in experiment [1] amounted to 16.9 ± 4.4 µM; in experiment [3], 1.22 ± 0.2 µM.
